The record followed here is PubChem BioAssay AID328 (DTP/NCI, 2004).

“And” between values parts separate entries of the source, which are not always exact repeats. Identical values can stand only once. Inconclusive results and toxic doses are left out.

For this test, the system named is BDF1 mice, P388 leukemia ip, median survival T/C. As to the kind of experiment: NCI In Vivo Anticancer Drug Screen. Data for tumor model P388 Leukemia (intraperitoneal) in B6D2F1 (BDF1) mice. As to conditions: endpoint: median survival time, higher = longer survival. Put shortly: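 Mice carrying the transplantable tumour receive compound or vehicle. Survival is followed in each arm, and the treated measure is divided by the vehicle measure.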

The mark [1] stands for this setting: dose: 100.0 mg/kg/injection, schedule: Q04DX003 (ip), vehicle: saline.
Where [2] appears, read: dose: 200.0 mg/kg/injection, schedule: Q04DX003 (ip), vehicle: saline.
[3] abbreviates: dose: 100.0 mg/kg/injection, schedule: Q04DX003 (ip), vehicle: saline with Tween-80.
Setting [4] is: dose: 200.0 mg/kg/injection, schedule: Q04DX003 (ip), vehicle: saline with Tween-80.
Where [5] appears, read: dose: 400.0 mg/kg/injection, schedule: Q04DX003 (ip), vehicle: saline with Tween-80.
The mark [6] stands for this setting: dose: 100.0 mg/kg/injection, schedule: Q01DX009 (ip), vehicle: saline with Tween-80.
The mark [7] stands for this setting: dose: 200.0 mg/kg/injection, schedule: Q01DX009 (ip), vehicle: saline with Tween-80.
The mark [8] stands for this setting: dose: 400.0 mg/kg/injection, schedule: Q01DX009 (ip), vehicle: saline with Tween-80.
Where [9] appears, read: dose: 50.0 mg/kg/injection, schedule: Q01DX009 (ip), vehicle: saline with Tween-80.
Where [10] appears, read: dose: 100.0 mg/kg/injection, schedule: Q01DX009 (ip), vehicle: saline.
The mark [11] stands for this setting: dose: 200.0 mg/kg/injection, schedule: Q01DX009 (ip), vehicle: saline.
[12] abbreviates: dose: 25.0 mg/kg/injection, schedule: Q01DX009 (ip), vehicle: saline.
Where [13] appears, read: dose: 100.0 mg/kg/injection, schedule: Q01DX001 (ip), vehicle: Klucel (hydroxypropylcellulose) (HPC).

`CCSc1ncnc2[nH]ncc12`: the T/C by setting is: (dose: 6.25 mg/kg/injection, schedule: Q01DX009 (ip), vehicle: saline + alcohol) 101 % of control; (dose: 12.5 mg/kg/injection, schedule: Q01DX009 (ip), vehicle: saline + alcohol) 100 % of control; (dose: 25.0 mg/kg/injection, schedule: Q01DX009 (ip), vehicle: saline + alcohol) 100 % of control; (dose: 50.0 mg/kg/injection, schedule: Q01DX009 (ip), vehicle: saline + alcohol) 98 % of control.
`CN(C)[C@@H]1C(=O)C(C(=O)NCNC(CO)(CO)CO)=C(O)[C@@]2(O)C(=O)C3=C(O)c4c(O)cccc4[C@@](C)(O)[C@H]3C[C@@H]12`: the T/C reads like this: (dose: 25.0 mg/kg/injection, schedule: Q04DX003 (ip), vehicle: saline) 100 % of control; (dose: 50.0 mg/kg/injection, schedule: Q04DX003 (ip), vehicle: saline) 95 % of control; under setting [1], 90 % of control; under setting [2], 104 % of control.
Consider `CCCCNP(=O)(N1CC1CC)N1CC1CC` (centres undefined), for which the T/C under setting [1] is 122 % of control.
For `Cc1ccc(S(=O)(=O)N(C)c2ccc(C#N)c(Cl)c2Cl)cc1`, the T/C was 90 % of control under setting [3], 86 % of control under setting [4] and 90 % of control under setting [5].
For the molecule `COc1ccc(NC(=S)N(C)C)cc1`, the T/C is 100 % of control under setting [6], 109 % of control under setting [7] and 109 % of control under setting [8].
Take `CCOc1cc(C=Nc2cc(Cl)c(O)c(Cl)c2)ccc1N(CCCl)CCCl`: the T/C runs as follows: (dose: 16.0 mg/kg/injection, schedule: Q04DX003 (ip), vehicle: saline with Tween-80) 154 % of control; (dose: 16.5 mg/kg/injection, schedule: Q04DX003 (ip), vehicle: saline with Tween-80) 157 % of control; (dose: 25.0 mg/kg/injection, schedule: Q04DX003 (ip), vehicle: saline with Tween-80) 173 % of control; (dose: 37.5 mg/kg/injection, schedule: Q04DX003 (ip), vehicle: saline with Tween-80) 207 % of control.
For `c1c2c(cc3c1OC1=C(CCCCCCCCCC1)C3)OC1=C(CCCCCCCCCC1)C2`, the T/C is 102 % of control under setting [9], 100 % of control under setting [6] and 86 % of control under setting [7].
For `CC12CCC3c4ccccc4CCC3(CO1)C2` (centres undefined), the T/C is, setting by setting: (dose: 100.0 mg/kg/injection, schedule: Q01DX009 (ip), vehicle: Klucel (hydroxypropylcellulose) (HPC)) 100 % of control; (dose: 100.0 mg/kg/injection, schedule: Q04DX003 (ip), vehicle: Klucel (hydroxypropylcellulose) (HPC)) 104 % of control; (dose: 200.0 mg/kg/injection, schedule: Q01DX009 (ip), vehicle: Klucel (hydroxypropylcellulose) (HPC)) 100 % of control; (dose: 200.0 mg/kg/injection, schedule: Q04DX003 (ip), vehicle: Klucel (hydroxypropylcellulose) (HPC)) 108 % of control; (dose: 400.0 mg/kg/injection, schedule: Q01DX009 (ip), vehicle: Klucel (hydroxypropylcellulose) (HPC)) 100 % of control; (dose: 400.0 mg/kg/injection, schedule: Q04DX003 (ip), vehicle: Klucel (hydroxypropylcellulose) (HPC)) 100 % of control.
For `Clc1ccc(Oc2ccc(N3C=Nc4ccc(Oc5ccc(Cl)cc5)cc4C3)cc2)cc1`, the T/C reads like this: (dose: 100.0 mg/kg/injection, schedule: Q04DX003 (ip), vehicle: alcohol) 100 % of control; (dose: 200.0 mg/kg/injection, schedule: Q04DX003 (ip), vehicle: alcohol) 100 % of control; (dose: 400.0 mg/kg/injection, schedule: Q04DX003 (ip), vehicle: alcohol) 95 % of control.
Regarding `C1CCC(=[N+]2CCCC2)CC1`, the T/C runs as follows: (dose: 50.0 mg/kg/injection, schedule: Q01DX009 (ip), vehicle: saline) 100 % of control; under setting [10], 100 % of control; under setting [1], 109 % of control; under setting [11], 112 % of control; under setting [2], 100 % of control.
Turning to `CN=C(NC)c1ccc(NC(=O)c2ccc(C(=O)Nc3ccc(C(=NC)NC)cc3)cc2)cc1`, the T/C was 104 % of control (dose: 6.25 mg/kg/injection, schedule: Q01DX009 (ip), vehicle: saline with Tween-80); 100 % of control (dose: 12.5 mg/kg/injection, schedule: Q01DX009 (ip), vehicle: saline with Tween-80); 86 % of control (dose: 25.0 mg/kg/injection, schedule: Q01DX009 (ip), vehicle: saline with Tween-80); 90 % of control under setting [1]; 90 % of control under setting [2].
Regarding `O=C(c1ccccc1)C1OC1c1ccccc1` (centres undefined), the T/C is, setting by setting: under setting [6], 93 % of control; under setting [7], 99 % of control; under setting [8], 100 % of control; (dose: 600.0 mg/kg/injection, schedule: Q01DX009 (ip), vehicle: saline with Tween-80) 100 % of control.
Regarding `C1CC[N-]CC1.C1CC[N-]CC1.O=C(O)C(=O)O.[Pt+2]`, the T/C under setting [12] was 120 % of control; the T/C (dose: 80.0 mg/kg/injection, schedule: Q01DX005 (ip), vehicle: Klucel (hydroxypropylcellulose) (HPC)) is 123 % of control; the T/C under setting [10] is 120 % of control; the T/C under setting [11] is 100 % of control; the T/C (dose: 400.0 mg/kg/injection, schedule: Q04DX003 (ip), vehicle: saline) was 118 % of control.
Turning to `CC(=O)Nc1ccc(S(=O)(=O)Oc2ccc([N+](=O)[O-])cc2)cc1`, the T/C by setting is: (dose: 1.56 mg/kg/injection, schedule: Q01DX009 (ip), vehicle: saline) 96 % of control; (dose: 3.12 mg/kg/injection, schedule: Q01DX009 (ip), vehicle: saline) 112 % of control; (dose: 6.25 mg/kg/injection, schedule: Q01DX009 (ip), vehicle: saline) 107 % of control; (dose: 12.5 mg/kg/injection, schedule: Q01DX009 (ip), vehicle: saline) 93 % of control; under setting [12], 92 % of control and 103 % of control.
As for `CC(C)(C)C(=O)/C=C/c1ccccc1`, the T/C was 94 % of control under setting [9], 90 % of control under setting [6] and 105 % of control under setting [7].
`c1ccc(-c2nn(-c3ccccc3)[n+](-c3cccc4ccccc34)n2)cc1`: the T/C runs as follows: (dose: 2.0 mg/kg/injection, schedule: Q01DX009 (ip), vehicle: saline with Tween-80) 103 % of control; (dose: 4.0 mg/kg/injection, schedule: Q01DX009 (ip), vehicle: saline with Tween-80) 112 % of control.
Regarding `O=c1ccccc(Br)c1O`, the T/C (dose: 25.0 mg/kg/injection, schedule: Q01DX001 (ip), vehicle: Klucel (hydroxypropylcellulose) (HPC)) was 110 % of control and the T/C under setting [13] was 121 % of control.
Consider `O=CC(S)CO` (centres undefined), for which the T/C is, setting by setting: (dose: 12.5 mg/kg/injection, schedule: Q01DX010 (ip), vehicle: carboxymethylcellulose (CMC)) 122 % of control; (dose: 25.0 mg/kg/injection, schedule: Q01DX010 (ip), vehicle: carboxymethylcellulose (CMC)) 122 % of control; (dose: 50.0 mg/kg/injection, schedule: Q01DX010 (ip), vehicle: carboxymethylcellulose (CMC)) 166 % of control; (dose: 100.0 mg/kg/injection, schedule: Q01DX010 (ip), vehicle: carboxymethylcellulose (CMC)) 166 % of control.
For `C(=N\OCCc1ccccc1)/c1cccnc1`, the T/C runs as follows: (dose: 100.0 mg/kg/injection, schedule: Q01DX009 (ip), vehicle: saline sonified) 100 % of control; (dose: 200.0 mg/kg/injection, schedule: Q01DX009 (ip), vehicle: saline sonified) 110 % of control.
As for `O=C(NCC(O)CCl)c1ccc([N+](=O)[O-])cc1` (centres undefined), the T/C by setting is: under setting [13], 100 % of control; (dose: 200.0 mg/kg/injection, schedule: Q01DX001 (ip), vehicle: Klucel (hydroxypropylcellulose) (HPC)) 100 % of control; (dose: 400.0 mg/kg/injection, schedule: Q01DX001 (ip), vehicle: Klucel (hydroxypropylcellulose) (HPC)) 110 % of control.
As for `CCC(c1ccc2cc(OC)ccc2c1)C(C)(C)C(=O)F` (centres undefined), the T/C was 116 % of control (dose: 12.5 mg/kg/injection, schedule: Q01DX009 (ip), vehicle: Klucel (hydroxypropylcellulose) (HPC)); 104 % of control (dose: 33.0 mg/kg/injection, schedule: Q01DX009 (ip), vehicle: Klucel (hydroxypropylcellulose) (HPC)); 113 % of control (dose: 75.0 mg/kg/injection, schedule: Q01DX009 (ip), vehicle: Klucel (hydroxypropylcellulose) (HPC)).
`O=C(Nc1ncn[nH]1)C(=O)Nc1ncn[nH]1`: the T/C reads like this: under setting [6], 102 % of control; under setting [7], 100 % of control.
Regarding `Cc1ccc(C)c(NC(=O)c2cccc(Cl)c2)c1`, the T/C is 104 % of control under setting [3], 100 % of control under setting [4] and 104 % of control under setting [5].
